Test results: US11291704B2, “Composition for preventing or treating obesity containing ethanolic extract of Ramulus mori” (Korea University Research and Business Foundation, priority 2016, dated 2022)

Test system: 3T3-L1 cells
Experiment: Lipid accumulation evaluation, Oil red O staining of MDI-differentiated adipocytes
Format: cell-based
Settings: 5 mM; DMSO-only sample = 100%; absorbance at 500 nm
Experimental: For induction of 3T3-L1 cells into adipocytes, the cells were treated with MDI (5 μg/ml insulin, 0.5 mM IBMX, and 1.0 μM dexamethasone) in DMEM containing 10% FBS and 1% penicillin-streptomycin, followed by induction of differentiation for 2 days. The differentiated 3T3-L1 cells were washed with physiological buffered saline (PBS), and then fixed with 10% formalin for 1 hour. The fixed cells were washed twice with ddH2O, treated with 60% isopropanol for 5 minutes, and then stained with Oil red O solution (dissolved in 60% isopropanol) for 10 minutes. After staining, the cells were washed four times with ddH2O, and de-stained with 100% isopropanol for 10 minutes, and then the cells were observed using a microscope and measured for absorbance at 500 nm.
The result of the sample treated with only DMSO used as a solvent was converted to 100%, and quantitatively measured for lipids.

CC(=O)N[C@@H](CS)C(=O)O [n-acetyl cysteine]
lipid accumulation: 20.6±3.7%
